Active and inactive are the calls of the source. Cut-off read from the data, not from the text of the source, for most assays here: actives have a measured EC50 and inactives only a lower limit.
Experiments:
[1] = biological target: T1, RNA-binding protein pos-1 (Caenorhabditis elegans, UniProt G5EF15); test: inhibitors of POS-1/mex-3 RNA binding, dose response, biochemical, fluorescence polarization (AID 1964);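 note: purified POS-1 fused to maltose binding protein made in E. coli; potency of compounds blocking POS-1 binding to fluorescent RNA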
T1 sequence (G5EF15 whole entry): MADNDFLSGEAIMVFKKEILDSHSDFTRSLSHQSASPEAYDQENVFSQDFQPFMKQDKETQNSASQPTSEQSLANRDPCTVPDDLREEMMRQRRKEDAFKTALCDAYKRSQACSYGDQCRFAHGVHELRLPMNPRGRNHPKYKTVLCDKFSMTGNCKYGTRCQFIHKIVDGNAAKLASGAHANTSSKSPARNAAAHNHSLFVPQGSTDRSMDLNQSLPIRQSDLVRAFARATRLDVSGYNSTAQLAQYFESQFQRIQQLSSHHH

[2] = biological target: T2, Zinc finger protein mex-5 (Caenorhabditis elegans, UniProt Q9XUB2); test: MEX-5/TCR-2 RNA interaction inhibitors, dose response, biochemical, C. elegans, fluorescence polarization (AID 1960)
T2 sequence (Q9XUB2 whole entry): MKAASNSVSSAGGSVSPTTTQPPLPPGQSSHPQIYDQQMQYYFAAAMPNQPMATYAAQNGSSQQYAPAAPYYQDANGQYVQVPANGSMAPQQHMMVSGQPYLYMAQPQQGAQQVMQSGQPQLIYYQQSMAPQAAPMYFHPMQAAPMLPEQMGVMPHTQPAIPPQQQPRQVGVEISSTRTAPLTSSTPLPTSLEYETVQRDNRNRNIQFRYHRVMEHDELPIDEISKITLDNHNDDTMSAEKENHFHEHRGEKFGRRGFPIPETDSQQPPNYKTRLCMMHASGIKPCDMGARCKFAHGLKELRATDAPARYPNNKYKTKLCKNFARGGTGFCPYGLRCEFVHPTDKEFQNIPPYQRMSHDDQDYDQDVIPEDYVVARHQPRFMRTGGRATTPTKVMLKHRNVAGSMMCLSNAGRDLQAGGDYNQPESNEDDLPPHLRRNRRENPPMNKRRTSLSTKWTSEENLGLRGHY

Cytochrome P450 2D6 = Cytochrome P450 2D6 (Homo sapiens, UniProt P10635);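 note: CYP2D6 member of a cytochrome P450 panel assay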
[3] = biological target: T3, Heat shock factor protein 1 (Mus musculus, UniProt P38532); test: HSF1 potentiators in luciferase reporter cells, confirmation, cell-based, NIH3T3, luminescence, dose retest (AID 435004); format: functional;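 note: stress induced by proteasome inhibitor MG132 added 30 min after compound; luciferase reporter driven by HSF1 response element in NIH3T3 cells; actives raise luminescence as potentiators of the MG132 stress response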
T3 sequence (P38532 whole entry): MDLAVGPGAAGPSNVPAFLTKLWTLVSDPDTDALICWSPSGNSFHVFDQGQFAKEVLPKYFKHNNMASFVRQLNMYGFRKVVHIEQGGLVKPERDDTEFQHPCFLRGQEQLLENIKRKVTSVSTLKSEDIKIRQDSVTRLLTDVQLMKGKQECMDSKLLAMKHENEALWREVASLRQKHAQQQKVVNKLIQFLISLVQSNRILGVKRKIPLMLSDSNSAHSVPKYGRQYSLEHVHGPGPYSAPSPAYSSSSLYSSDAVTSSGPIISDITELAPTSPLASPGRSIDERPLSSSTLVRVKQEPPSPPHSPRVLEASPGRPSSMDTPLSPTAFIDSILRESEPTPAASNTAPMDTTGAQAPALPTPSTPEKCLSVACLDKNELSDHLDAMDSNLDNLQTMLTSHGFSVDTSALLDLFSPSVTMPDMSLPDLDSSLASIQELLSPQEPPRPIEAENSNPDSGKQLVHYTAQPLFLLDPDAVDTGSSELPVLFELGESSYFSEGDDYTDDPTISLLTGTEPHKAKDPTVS

[4] = inhibitors of firefly luciferase expression or activity, dose response, H4 neuroglioma cells, luminescence (AID 1990); format: functional, cell-based
[5] = inhibitors of SNCA 5'UTR-driven reporter translation, confirmation, H4 neuroglioma cells, luminescence (AID 1988); format: functional, cell-based
cells [6] = format: functional, cell-based
[7] = Luminescence Cell-Based Dose Response HTS to Identify Inhibitors of 5'UTR Stem-Loop Driven Prion Protein mRNA Translation in H4 Neuroglioblastoma Cells. [Related pubchem assays: 1827 (Project Summary), 1813 (Primary HTS)]; format: functional
cells [8] = format: functional, cell-based; remark: listed apart in the source
Cytochrome P450 3A4 = Cytochrome P450 3A4 (Homo sapiens, UniProt P08684);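 note: CYP3A4 tested as one member of a cytochrome P450 panel screen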
[9] = Luminescence Cell-Based Dose Response HTS to Identify Activators of Luciferase Translation or Activity in H4 […] Cells. [Related pubchem assays: 1829 (Project Summary), 1814 (Primary HTS)]; format: functional
[10] = Luminescence Cell-Based Dose Confirmation HTS to Identify Activators of 5'UTR Stem-Loop Driven Alpha-Synuclein mRNA Translation in H4 Neuroglioblastoma Cells. [Related pubchem assays: 1829 (Project Summary), 1814 (Primary HTS)]; format: functional
H4 = test: Luminescence Cell-Based Dose Response HTS to Identify Activators of 5'UTR Stem-Loop Driven Prion Protein mRNA Translation in H4 Neuroglioblastoma Cells. [Related pubchem assays: 1829 (Project Summary), 1814 (Primary HTS)]; format: functional; settings: Homo sapiens
[11] = biological target: T4, Corticotropin-releasing factor receptor 2/Corticotropin-releasing factor-binding protein (Homo sapiens, UniProt P24387+Q13324); test: activators of CRF receptor 2 with binding protein – uHTS hits, confirmation (AID 602473); format: functional; settings: read-out: EC50_Mean
T4 sequence (Q13324 whole entry): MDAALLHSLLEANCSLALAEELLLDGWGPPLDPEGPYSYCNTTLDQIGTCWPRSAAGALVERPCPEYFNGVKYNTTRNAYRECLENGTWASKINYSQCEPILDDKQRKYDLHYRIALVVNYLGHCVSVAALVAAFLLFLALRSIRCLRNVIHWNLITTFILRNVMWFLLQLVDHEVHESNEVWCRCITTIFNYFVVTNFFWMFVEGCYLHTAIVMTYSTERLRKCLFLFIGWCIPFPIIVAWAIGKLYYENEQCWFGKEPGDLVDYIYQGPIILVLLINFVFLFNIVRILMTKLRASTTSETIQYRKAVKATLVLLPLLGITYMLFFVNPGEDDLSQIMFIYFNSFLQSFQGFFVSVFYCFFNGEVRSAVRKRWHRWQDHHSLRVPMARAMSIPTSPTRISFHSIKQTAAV
T4 sequence (P24387 whole entry): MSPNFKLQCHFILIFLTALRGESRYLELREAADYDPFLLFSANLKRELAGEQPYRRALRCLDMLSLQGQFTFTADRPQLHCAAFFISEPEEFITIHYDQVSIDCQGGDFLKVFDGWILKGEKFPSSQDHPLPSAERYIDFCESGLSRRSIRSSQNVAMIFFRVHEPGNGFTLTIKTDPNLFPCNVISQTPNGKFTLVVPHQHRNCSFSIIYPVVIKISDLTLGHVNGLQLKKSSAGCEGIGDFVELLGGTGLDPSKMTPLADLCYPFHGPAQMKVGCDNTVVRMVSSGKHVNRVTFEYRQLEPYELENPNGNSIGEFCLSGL

[12] = Luminescence Cell-Based Dose Retest to Confirm Inhibitors of Cancer Stem Cells. [Related pubchem assays (depositor defined):AID2717, AID2721]; format: functional; settings: Homo sapiens
Cytochrome P450 1A2 = biological target: T5, Cytochrome P450 1A2 (Homo sapiens, UniProt P05177);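 note: PubChem cytochrome P450 panel assay, CYP1A2 panel member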
T5 sequence (P05177 whole entry): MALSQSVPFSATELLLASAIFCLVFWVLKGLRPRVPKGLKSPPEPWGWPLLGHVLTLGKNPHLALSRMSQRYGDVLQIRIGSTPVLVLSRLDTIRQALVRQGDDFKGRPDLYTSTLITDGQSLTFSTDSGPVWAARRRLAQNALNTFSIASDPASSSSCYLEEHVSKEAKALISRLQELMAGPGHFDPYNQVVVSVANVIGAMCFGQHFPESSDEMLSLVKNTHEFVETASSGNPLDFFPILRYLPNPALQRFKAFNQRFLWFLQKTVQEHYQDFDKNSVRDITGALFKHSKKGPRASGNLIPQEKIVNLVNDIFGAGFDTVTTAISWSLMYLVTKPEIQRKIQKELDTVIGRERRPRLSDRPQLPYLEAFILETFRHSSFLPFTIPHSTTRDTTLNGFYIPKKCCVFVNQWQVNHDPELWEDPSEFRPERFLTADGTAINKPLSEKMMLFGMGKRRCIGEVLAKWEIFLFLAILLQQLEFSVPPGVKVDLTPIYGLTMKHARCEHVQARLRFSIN

SN12K1 = test: cells; format: functional; settings: Homo sapiens
P388/ADR = test: cells; format: functional; settings: Mus musculus

Chain of Cytochrome P450 2D6 (P10635 whole entry): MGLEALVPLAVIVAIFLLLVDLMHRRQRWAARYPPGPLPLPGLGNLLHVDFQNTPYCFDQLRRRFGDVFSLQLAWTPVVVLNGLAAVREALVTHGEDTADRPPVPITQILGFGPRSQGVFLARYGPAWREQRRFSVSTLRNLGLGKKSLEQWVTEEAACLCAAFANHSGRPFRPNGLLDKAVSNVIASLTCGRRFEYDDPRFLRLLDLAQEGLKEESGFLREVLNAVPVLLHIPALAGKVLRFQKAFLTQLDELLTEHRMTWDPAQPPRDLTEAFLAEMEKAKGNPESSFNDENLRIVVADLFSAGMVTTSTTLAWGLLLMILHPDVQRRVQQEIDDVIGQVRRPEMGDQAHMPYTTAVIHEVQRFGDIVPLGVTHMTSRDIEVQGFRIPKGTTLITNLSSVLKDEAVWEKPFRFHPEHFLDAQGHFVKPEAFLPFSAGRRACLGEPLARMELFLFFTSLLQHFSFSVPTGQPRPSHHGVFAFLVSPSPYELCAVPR
Chain of Cytochrome P450 3A4 (P08684 whole entry): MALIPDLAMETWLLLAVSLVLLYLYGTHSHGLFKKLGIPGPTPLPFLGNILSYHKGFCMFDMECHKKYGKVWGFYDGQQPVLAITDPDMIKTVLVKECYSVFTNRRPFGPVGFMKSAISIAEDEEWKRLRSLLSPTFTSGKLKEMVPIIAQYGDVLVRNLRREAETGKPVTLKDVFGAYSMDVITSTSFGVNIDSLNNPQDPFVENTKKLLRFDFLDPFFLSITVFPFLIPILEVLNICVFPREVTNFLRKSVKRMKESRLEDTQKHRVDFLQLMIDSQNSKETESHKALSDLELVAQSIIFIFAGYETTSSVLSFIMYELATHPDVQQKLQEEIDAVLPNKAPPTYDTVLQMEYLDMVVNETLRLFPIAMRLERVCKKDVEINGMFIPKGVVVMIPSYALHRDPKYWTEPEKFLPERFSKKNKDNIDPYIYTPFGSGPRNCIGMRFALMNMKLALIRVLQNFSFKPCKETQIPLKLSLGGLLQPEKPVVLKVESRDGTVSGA

CCN1C(=O)/C(=C\c2cccs2)C(C(=O)OC)=C1C
EC50 [1]: > 300 µM (not active) | EC50 [2]: > 300 µM (not active)

N#C[C@H](c1ccccc1)N1CCCN([C@@H](C#N)c2ccccc2)[C@H]1c1ccccc1O
AC50 (Cytochrome P450 2D6): 5.01 µM (inconclusive)

N#C/C(=C/c1cccn1-c1cccc(C(=O)O)c1)c1ccc(Cl)cc1
EC50 [1]: > 300 µM (not active) | EC50 [2]: > 300 µM (not active)

COCCn1c(N)c(N(Cc2ccccc2)C(=O)c2ccc(C#N)cc2)c(=O)[nH]c1=O
EC50 [3]: > 260 µM (inactive)

Cc1cc(/C=C2\C(=O)NC(=O)N(c3ccc(Br)cc3)C2=O)c(C)n1-c1cc(C(=O)O)cc(C(=O)O)c1
EC50 [1]: > 300 µM (not active) | EC50 [2]: > 300 µM (not active)

O[C@H](COc1ccccc1)CN1CCCCC1
AC50 (Cytochrome P450 2D6): 5.01 µM (inconclusive)

Cc1ccc(-c2ccc(O)nn2)cc1
EC50 [3]: > 260 µM (inactive)

O=C1NC(=O)N(c2cccc(Cl)c2)C(=O)/C1=C\Nc1ccccn1
EC50 [1]: > 300 µM (not active) | EC50 [2]: > 300 µM (not active)

COC(=O)CCCC1=CC2=CC(=O)C(C)(OC(=O)c3ccco3)C(=O)C2=CO1 (stereo not given)
EC50 [1]: 274 µM (inconclusive) | EC50 [2]: 22.3 µM (active)

Cc1ccc(CNC(=O)/C(C#N)=C\c2ccc(N(C)C)cc2)cc1
EC50 [1]: 43.5 µM (active) | EC50 [2]: > 300 µM (not active)

CCOc1ccccc1N1CCN(C(=S)NC(=O)C23CC4CC(CC(C4)C2)C3)CC1
EC50 [4]: > 120 µM (not active) | EC50 [5]: 17.3 µM (active) | EC50 (cells [6]): > 350 µM (not active) | EC50 [7]: 24.5 µM (active) | EC50 (cells [8]): > 350 µM (not active)

Cc1noc(C)c1C(=O)N1CCC2(CCCN(c3ccccc3)C2)CC1
AC50 (Cytochrome P450 3A4): 15.8 µM (inconclusive) | AC50 (Cytochrome P450 2D6): 12.6 µM (inconclusive)

CCCOC1CCCN(C(=O)CCc2nnc(Cc3cccc(C)c3)o2)C1 (stereo not given)
EC50 [9]: 16.5 µM (active) | EC50 [10]: 9.73 µM (active) | EC50 (H4): 16.5 µM (inconclusive)

Cc1ccc(C(c2nnnn2C2CCCC2)N2CCc3ccccc32)cc1 (stereo not given)
EC50 [3]: > 260 µM (inactive)

CCCC[C@@H]1C[C@H]1C(NC(=O)c1ccco1)c1ccccc1 (stereo not given in full)
AC50 (Cytochrome P450 3A4): 20 µM (inconclusive) | AC50 (Cytochrome P450 2D6): 39.8 µM (inconclusive)

S=C1SCN(C2CCCCCCCCCCC2)CN1C1CCCCCCCCCCC1
AC50 (Cytochrome P450 2D6): 3.16 µM (inconclusive)

CNC(=O)c1c(NC(=O)c2ccc(S(=O)(=O)N3CCCc4ccccc43)cc2)sc2c1CCN(C)C2
EC50 [11]: 6.81 µM (active) | EC50 [1]: > 300 µM (not active) | EC50 [2]: > 300 µM (not active) | AC50 [12]: 0.206 µM (active)

O=C(c1csnn1)N1CCC2(CC1)CCN(c1ncccn1)CC2
AC50 (Cytochrome P450 2D6): 39.8 µM (inconclusive)

CCC/C=C(\CCC)C(NS(C)(=O)=O)c1ccccc1 (stereo not given)
AC50 (Cytochrome P450 1A2): 25.1 µM (inconclusive) | AC50 (Cytochrome P450 3A4): 31.6 µM (inconclusive) | AC50 (Cytochrome P450 2D6): 39.8 µM (inconclusive)

S=C(NCc1ccco1)N1CCN(c2ccccc2Cl)CC1
EC50 [3]: > 260 µM (inactive)

C[C@H]1CN(C2CCC(C#N)(c3ccc(F)cc3)CC2)CC[C@@]1(C(=O)O)c1ccccc1 (stereo not given in full)
AC50 (Cytochrome P450 2D6): 10 µM (inconclusive)

CCN1CCCCC(=N/O)/C(=N/O)CCCC1
AC50 (Cytochrome P450 2D6): 1.58 µM (inconclusive)

O=S1(=O)N=C(NCC(c2ccco2)N2CCCCC2)c2ccccc21 (stereo not given)
EC50 [3]: > 260 µM (inactive)

C/C(=N\OC(=O)c1ccc(F)cc1)c1ccc(F)c(F)c1
EC50 [3]: > 260 µM (inactive)

Cc1ccc(/C=N/N(Cc2ccccc2)c2ccccc2)o1
EC50 [3]: > 260 µM (inactive)

C/C(=N/NC(=O)c1ccoc1C)c1ccc(NC(=O)c2ccncc2)cc1
EC50 [9]: 0.148 µM (inconclusive) | EC50 [10]: 23.9 µM (active) | EC50 (H4): 0.102 µM (active)

CC[C@@]1(O)C[C@H](OC2CC(N(C)C)C(OC3CC(O)C(OC4CCC(=O)C(C)O4)C(C)O3)C(C)O2)c2c(cc3c(c2O)C(=O)c2c(O)cccc2C3=O)[C@H]1C(=O)OC (stereo not given in full)
GI50 (SN12K1): 0.0236 µM (active) | GI50 (P388/ADR): 0.0333 µM (active)

COc1c2occc2c(OC)c2c(=O)cc(C)oc12 [KHELLIN]
AC50 (Cytochrome P450 2D6): 10 µM (inconclusive)
